{"source": "patent US20040235813A1", "about": "“Compounds that inhibit hsp90 and stimulate hsp70 and hsp40, useful in the prevention or treatment of diseases associated with protein aggregation and amyloid formation” (priority 2001, published 2004)", "key": {"Hsp40": {"tested_on": "Hsp40", "assay": "Immunoblot of Hsp40 expression in GA treated COS-1 cells expressing EGFP-HD72Q", "type": "cell-based", "conditions": "GA 360 nM, 40 hours", "method": "(§1) Equal amounts (10 μg) of protein were loaded. […] Aggregates were detected using the filter retardation assay.\n(§2) Control cells were treated with DMSO.\n(§3) Protein concentration was determined by the BioRad assay."}, "Hsp70": {"tested_on": "Hsp70", "assay": "Immunoblot of Hsp70 expression in GA treated COS-1 cells expressing EGFP-HD72Q", "type": "cell-based", "conditions": "GA 360 nM, 40 hours", "method": "as §1, §2, §3"}, "EGFP-HD72Q": {"tested_on": "EGFP-HD72Q", "assay": "Immunoblot of EGFP-HD72Q expression in GA treated COS-1 cells", "type": "cell-based", "conditions": "GA 18-360 nM, 40 hours", "method": "(§4) (A) Expression of EGFP-HD72Q, Hsp40, Hsp70, and Hsp90 in COS-1 cells. […] Equal amounts (10 μg) of protein were loaded. […] Aggregates were detected using the filter retardation assay. Filters were probed with the HD1 antibody and signal intensities quantified using a Fuji-imager (LAS 2000). […] Values shown are the mean of three independent experiments (±S.E).\n(§5) A further linker was introduced in order to generate the appropriate reading frame, resulting in pTL1-HA3. Hsp70-pTLHA3 was generated by PCR amplification of the human Hsp70A gene and cloning into pTL1-HA3. Hdj-1-pTL10Flag was generated by ligating the human HDJ-1 gene, derived from pQE9-His-Hsp40 (33), into pTL10SFlag (a kind gift of D. Devys and J.-L. Mandel). pEGFP-HD72Q was generated by PCR amplification of the exon 1 of human HD from patient DNA and cloning into pEGFP-C1 (Clontech). All constructs were verified by sequencing.\nControl cells were treated with DMSO. […]\nSDS-PAGE and Western blot analysis was performed according to standard procedures. […] Captured aggregates were detected by incubation with HD1 IgG (diluted 1:5000) followed by incubation with alkaline phosphatase conjugated anti-rabbit IgG and the fluorescent substrate AttoPhos. Quantitation of the captured aggregates was performed using a Fuji-imager (LAS 2000) and AIDA 1.0 image analysis software."}, "[1]": {"tested_on": "SDS-insoluble EGFP-HD72Q protein aggregates", "assay": "Filter retardation assay for SDS-insoluble EGFP-HD72Q protein aggregates in COS-1 cells", "type": "cell-based, monkey", "conditions": "filtration assay", "method": "as §4, §5\nControl cells were treated with DMSO. As alternative transfection method, the Lipofectamine Plus Reagent (GibcoBRL Life Technologies) was used according to the manufacturer's instruction.\nSDS-PAGE and Western blot analysis was performed according to standard procedures. For the filter retardation assay (27,30) protein samples (1-20 μg) were heated at 98° C. for 3 min in 2% SDS and 50 mM DTT and filtered through a 0.2 μm cellulose acetate membrane (Schleicher & Schuell) using a BRL dot-blot filtration unit. Captured aggregates were detected by incubation with HD1 IgG (diluted 1:5000) followed by incubation with alkaline phosphatase conjugated anti-rabbit IgG and the fluorescent substrate AttoPhos. Quantitation of the captured aggregates was performed using a Fuji-imager (LAS 2000) and AIDA 1.0 image analysis software.\nUsing this assay SDS-resistant huntingtin protein aggregates can be immunologically detected and quantified."}}, "data": [{"smiles": "COC1=C2C[C@@H](C)C[C@H](OC)[C@H](O)[C@@H](C)/C=C(\\C)[C@H](OC(N)=O)[C@@H](OC)/C=C\\C=C(/C)C(=O)NC(=CC1=O)C2=O", "note": "[GA, Geldanamycin]", "values": [{"measurement": "up-regulation of Hsp40 compared to the untreated controls", "setting": "Hsp40", "value": "3-4 fold"}, {"measurement": "up-regulation of Hsp70 compared to the untreated controls", "setting": "Hsp70", "value": "3-4 fold"}, {"measurement": "effect on EGFP-HD72Q expression", "setting": "EGFP-HD72Q", "value": "no effect"}, {"measurement": "reduction of the amount of insoluble protein aggregates", "setting": "[1]; GA 18 nM", "value": "approximately 30%"}, {"measurement": "reduction of the amount of insoluble protein aggregates", "setting": "[1]; GA 90 nM", "value": "~60", "unit": "%"}, {"measurement": "reduction of the amount of insoluble protein aggregates", "setting": "[1]; GA 180 nM", "value": "~70", "unit": "%"}, {"measurement": "reduction of the amount of insoluble protein aggregates", "setting": "[1]; GA 360 nM", "value": "~80", "unit": "%"}]}]}
